pIC50: −log10 of the molar value.
System: Plasmodium berghei
Assay: Luciferase/luciferin-expressing antifolate-resistant parasites were used to infect a culture of HepG2 cells that were pre-incubated with compounds. Infected hepatocytes emit light due to the luciferase reaction. Assay results are presented as the percent inhibition of light emission compared to control. […]
Assay type: functional
Conditions: sporozoite; for IC90: read-out: LUCIFERASE INFECTION ASSAY - IC90

Compound | IC90 | other results
O=C(NC1CC1)c1ccc(-c2cnc3c(NCC4CC4)nccn23)cc1 | 6.12 µM | pIC50 (HEPG2TOX_HILL_SLOPE 1.1, HEPG2TOX_R_SQUARED 0.94, PBLUC_HILL_SLOPE 4.24, PBLUC_R_SQUARED 0.447, read-out: LUCIFERASE INFECTION ASSAY - IC50): 5.44
Cc1nn2c(=O)cc(-c3ccccc3)[nH]c2c1-c1ccc(F)cc1 | 1.16 µM | pIC50 (HEPG2TOX_HILL_SLOPE 1.12, HEPG2TOX_R_SQUARED 0.564, PBLUC_HILL_SLOPE 22.2, PBLUC_R_SQUARED 0.649, read-out: LUCIFERASE INFECTION ASSAY - IC50): 5.98
C/C(=N\NC(N)=S)c1ccccn1 | 2.4 µM | pIC50 (HEPG2TOX_HILL_SLOPE 1.14, HEPG2TOX_R_SQUARED 0.913, PBLUC_HILL_SLOPE 1.97, PBLUC_R_SQUARED 0.843, read-out: LUCIFERASE INFECTION ASSAY - IC50): 6.10
Cc1ccc2c(Cl)cc(Cl)c(OCC(=O)c3c[nH]c(C(=O)N4CCCC4)c3)c2n1 | 8.53 µM | pIC50 (HEPG2TOX_HILL_SLOPE 1.13, HEPG2TOX_R_SQUARED 0.949, PBLUC_HILL_SLOPE 1.15, PBLUC_R_SQUARED 0.754, read-out: LUCIFERASE INFECTION ASSAY - IC50): 5.90
CCCCc1noc(C(C)Sc2nc(C(C)(C)C)nc3c2c(=O)n(C)c(=O)n3C)n1 (centres undefined) | > 10 µM | pIC50 (HEPG2TOX_HILL_SLOPE 1.13, HEPG2TOX_R_SQUARED 0.608, PBLUC_HILL_SLOPE 1.15, PBLUC_R_SQUARED 0.641, read-out: LUCIFERASE INFECTION ASSAY - IC50): 5.41
COc1ccc2ccccc2c1/C=N/Nc1ncc(C(F)(F)F)cc1Cl | > 10 µM | pIC50 (HEPG2TOX_HILL_SLOPE 1.11, HEPG2TOX_R_SQUARED 0.987, read-out: LUCIFERASE INFECTION ASSAY - IC50): < 5.00
CC(=O)c1cccc(-c2cnc3ccc(Cc4ccccc4)nn23)c1 | 8.78 µM | pIC50 (HEPG2TOX_HILL_SLOPE 1.13, HEPG2TOX_R_SQUARED 0.363, PBLUC_HILL_SLOPE 4.01, PBLUC_R_SQUARED 0.469, read-out: LUCIFERASE INFECTION ASSAY - IC50): 5.29
COc1cc(-c2cnc3cnc(-c4cccs4)cn23)cc(OC)c1OC | 2.1 µM | pIC50 (HEPG2TOX_HILL_SLOPE 1.1, HEPG2TOX_R_SQUARED 0.918, PBLUC_HILL_SLOPE 2.83, PBLUC_R_SQUARED 0.515, read-out: LUCIFERASE INFECTION ASSAY - IC50): 6.02
COc1ccc(-c2ccc(/C=N/Nc3ccc(F)cc3)s2)cc1 | 5.44 µM | pIC50 (HEPG2TOX_HILL_SLOPE 1.1, HEPG2TOX_R_SQUARED 0.99, PBLUC_HILL_SLOPE 2.83, PBLUC_R_SQUARED 0.421, read-out: LUCIFERASE INFECTION ASSAY - IC50): 5.60
Cn1c(-c2ccco2)nc2cnc(Nc3cccc(F)c3)cc21 | > 10 µM | pIC50 (HEPG2TOX_HILL_SLOPE 1.1, HEPG2TOX_R_SQUARED 0.907, read-out: LUCIFERASE INFECTION ASSAY - IC50): < 5.00
COc1ccc2cc(/C(C)=N/OC(=O)Nc3ccccc3)ccc2c1 | > 9.87 µM | pIC50 (HEPG2TOX_HILL_SLOPE 1.11, HEPG2TOX_R_SQUARED 0.992, read-out: LUCIFERASE INFECTION ASSAY - IC50): < 5.01
CCOc1ccc(/C=C/c2ccc3c(Cl)cc(Cl)c(O)c3n2)cc1OC | > 10 µM | pIC50 (HEPG2TOX_HILL_SLOPE 1.14, HEPG2TOX_R_SQUARED 0.782, PBLUC_HILL_SLOPE 2.47, PBLUC_R_SQUARED 0.699, read-out: LUCIFERASE INFECTION ASSAY - IC50): 5.34
O=C(C1=NNCC1c1ccccc1)c1ccc2ccccc2c1 (centres undefined) | > 11 µM | pIC50 (HEPG2TOX_HILL_SLOPE 1.14, HEPG2TOX_R_SQUARED 0.985, PBLUC_HILL_SLOPE 1.79, PBLUC_R_SQUARED 0.146, read-out: LUCIFERASE INFECTION ASSAY - IC50): 5.28
Cc1ccc2nc(NC(=O)c3cc(F)c(F)cc3F)c(C(=O)NC3CCCC3)n2c1 | 2.75 µM | pIC50 (HEPG2TOX_HILL_SLOPE 1.15, HEPG2TOX_R_SQUARED 0.906, PBLUC_HILL_SLOPE 3.53, PBLUC_R_SQUARED 0.394, read-out: LUCIFERASE INFECTION ASSAY - IC50): 5.83
COc1ccc(-c2cc(-c3cccc(NS(C)(=O)=O)c3)cnc2N)c(OC)c1 | 4.29 µM | pIC50 (HEPG2TOX_HILL_SLOPE 1.15, HEPG2TOX_R_SQUARED 0.874, PBLUC_HILL_SLOPE 1.81, PBLUC_R_SQUARED 0.713, read-out: LUCIFERASE INFECTION ASSAY - IC50): 5.90
C=CCN(c1ccc(C(=O)Nc2ccc(C(F)(F)F)cc2)cc1)S(C)(=O)=O | 7.12 µM | pIC50 (HEPG2TOX_HILL_SLOPE 1.13, HEPG2TOX_R_SQUARED 0.916, PBLUC_HILL_SLOPE 2.09, PBLUC_R_SQUARED 0.336, read-out: LUCIFERASE INFECTION ASSAY - IC50): 5.60

Compound | IC90 | other results
CCCCN(Cc1nc(=O)c2ccccc2[nH]1)C(=O)c1cc2c(F)cccc2s1 | > 10 µM | pIC50 (HEPG2TOX_HILL_SLOPE 1.1, HEPG2TOX_R_SQUARED 0.0883, read-out: LUCIFERASE INFECTION ASSAY - IC50): < 5.00
COc1cc(C)c(Nc2cc(-c3ccc(N(C)C)cc3)ncn2)cc1OC | 0.48 µM | pIC50 (HEPG2TOX_HILL_SLOPE 1.1, HEPG2TOX_R_SQUARED 0.88, PBLUC_HILL_SLOPE 3.68, PBLUC_R_SQUARED 0.773, read-out: LUCIFERASE INFECTION ASSAY - IC50): 6.58
N#Cc1ccc(Cc2cnc(NC(=O)c3ccc4ncsc4c3)s2)cc1 | 1.82 µM | pIC50 (HEPG2TOX_HILL_SLOPE 1.13, HEPG2TOX_R_SQUARED 0.797, PBLUC_HILL_SLOPE 1.77, PBLUC_R_SQUARED 0.567, read-out: LUCIFERASE INFECTION ASSAY - IC50): 6.28
ONC(=NC(=S)Nc1cc(Cl)ccc1Cl)c1ccccn1 | 9.52 µM | pIC50 (HEPG2TOX_HILL_SLOPE 1.13, HEPG2TOX_R_SQUARED 0.776, PBLUC_HILL_SLOPE 15.8, PBLUC_R_SQUARED 0.357, read-out: LUCIFERASE INFECTION ASSAY - IC50): 5.08
c1ccc(Oc2cccc(Nc3nccc4nc(-c5ccccc5)[nH]c34)c2)cc1 | 3.51 µM | pIC50 (HEPG2TOX_HILL_SLOPE 1.11, HEPG2TOX_R_SQUARED 0.909, PBLUC_HILL_SLOPE 45.8, PBLUC_R_SQUARED 0.688, read-out: LUCIFERASE INFECTION ASSAY - IC50): 5.48
CCCNC(=O)c1c(NC(=O)c2ccccc2)nc2ccc(C)cn12 | 7.77 µM | pIC50 (HEPG2TOX_HILL_SLOPE 1.15, HEPG2TOX_R_SQUARED 0.736, PBLUC_HILL_SLOPE 3.57, PBLUC_R_SQUARED 0.289, read-out: LUCIFERASE INFECTION ASSAY - IC50): 5.38
COc1cc(C(=O)NNC(=O)c2ccc(Br)cc2)ccc1OCc1c(C)noc1C | 7.1 µM | pIC50 (HEPG2TOX_HILL_SLOPE 1.09, HEPG2TOX_R_SQUARED 0.959, PBLUC_HILL_SLOPE 2.18, PBLUC_R_SQUARED 0.498, read-out: LUCIFERASE INFECTION ASSAY - IC50): 5.59
Cc1ccc(NC(=O)NC(=O)c2c(-c3snnc3C)noc2C)cc1 | > 9.23 µM | pIC50 (HEPG2TOX_HILL_SLOPE 1.11, HEPG2TOX_R_SQUARED 0.954, PBLUC_HILL_SLOPE 1.54, PBLUC_R_SQUARED 0.355, read-out: LUCIFERASE INFECTION ASSAY - IC50): 5.60
O=C(Nc1ncc(Cc2ccc(Br)cc2)s1)c1ccc2n[nH]nc2c1 | 1.27 µM | pIC50 (HEPG2TOX_HILL_SLOPE 1.09, HEPG2TOX_R_SQUARED 0.989, PBLUC_HILL_SLOPE 1.74, PBLUC_R_SQUARED 0.819, read-out: LUCIFERASE INFECTION ASSAY - IC50): 6.44
CC(C)(C)NC(=S)N/N=C/c1cc(Cl)cc(Cl)c1O | 6.66 µM | pIC50 (HEPG2TOX_HILL_SLOPE 1.14, HEPG2TOX_R_SQUARED 0.984, PBLUC_HILL_SLOPE 2.14, PBLUC_R_SQUARED 0.291, read-out: LUCIFERASE INFECTION ASSAY - IC50): 5.62
CCOc1cc2ccccc2cc1C(=O)NNC(=O)c1ccccn1 | 1.23 µM | pIC50 (HEPG2TOX_HILL_SLOPE 1.13, 0.817, HEPG2TOX_R_SQUARED 0.858, 0.909, PBLUC_HILL_SLOPE 4.86, PBLUC_R_SQUARED 0.852, read-out: LUCIFERASE INFECTION ASSAY - IC50): 6.11
COc1cc(-c2nccc3n[nH]c(C)c23)cc(OC)c1OC | > 10 µM | pIC50 (HEPG2TOX_HILL_SLOPE 1.13, HEPG2TOX_R_SQUARED 0.879, read-out: LUCIFERASE INFECTION ASSAY - IC50): < 5.00
O=C(Nc1nc2ccccn2c1C(=O)NC1CCCCC1)c1cc(F)ccc1F | 2.12 µM | pIC50 (HEPG2TOX_HILL_SLOPE 1.14, HEPG2TOX_R_SQUARED 0.869, PBLUC_HILL_SLOPE 2.93, PBLUC_R_SQUARED 0.682, read-out: LUCIFERASE INFECTION ASSAY - IC50): 6.00
CCc1sc(C(=O)Nc2cnc3ccccc3c2)cc1C | > 10 µM | pIC50 (HEPG2TOX_HILL_SLOPE 1.13, HEPG2TOX_R_SQUARED 0.365, PBLUC_HILL_SLOPE 0.275, PBLUC_R_SQUARED 0.613, read-out: LUCIFERASE INFECTION ASSAY - IC50): 6.34
CC(=O)c1cccc(-c2cnc3ccc(-c4cncnc4)nn23)c1 | 3.69 µM | pIC50 (HEPG2TOX_HILL_SLOPE 1.11, HEPG2TOX_R_SQUARED 0.828, PBLUC_HILL_SLOPE 6.15, PBLUC_R_SQUARED 0.481, read-out: LUCIFERASE INFECTION ASSAY - IC50): 5.59
Cn1c(CC(=O)NNC(=O)c2ccccc2Nc2ccccc2)nc2ccccc21 | 3.3 µM | pIC50 (HEPG2TOX_HILL_SLOPE 1.15, HEPG2TOX_R_SQUARED 0.894, PBLUC_HILL_SLOPE 16.3, PBLUC_R_SQUARED 0.746, read-out: LUCIFERASE INFECTION ASSAY - IC50): 5.54

From ChEMBL document CHEMBL4483862, “Open-source discovery of chemical leads for next-generation chemoprotective antimalarials” (2018)
